Values belong to the compound of their own block, whether it stands above or below them.
System: MCF7 complex spheroid growth, % test/control
Assay: Anticancer human tumor MCF7 cell line growth inhibition [Asc];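 also: spheroids exposed to compounds for 7 days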;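 as to viability, T/C: 100% = DMSO vehicle control wells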
Conditions: for IC50: curve of first compound; for viability, T/C: stronger effect = lower value
Protocol: Multicellular complex tumor spheroid response to apoptosis pathway targeting inhibitors Alrizomadlin, Pelcitoclax, and Dasminapant in combination with a variety of drugs and investigational agents in selected tumor cell lines
The MDM2 inhibitor alrizomadlin, the Bcl-2/Bcl-xL inhibitor pelcitoclax, and the IAPs inhibitor dasminapant were evaluated both individually and in combination with standard of care and investigational anticancer small molecules within a complex spheroid model of solid tumors. . Complex spheroids include a stromal component modeled by human endothelial cells (HUVEC) and fibroblasts modeled by human mesenchymal stem cells (MSCs). The concentration ranges selected for each drug and investigational agent were based upon clinically achievable concentrations if the clinical Cmax of the agent was known.
Compounds. The drugs and investigational agents: alrizomadlin (APG-115; NSC831270), pelcitoclax (APG-1252; NSC835773), dasminapant (APG-1387;NSC834197), TAK-243 (NSC785004), copanlisib (NSC809693), olaparib (NSC753686), talazoparib (NSC767125), cobimetinib (NSC 768068), eltanexor (KPT-8602, NSC 794443), abemaciclib (NSC 768073), sotorasib (NSC818433), adagrasib (NSC 831453), MRTX-1133 (NSC 836407), Iadademestat (ORY1001, NSC 806812), and RMC-4630 (NSC839698), were obtained from the NCI Developmental Therapeutics Program Chemical Repository. The FDA-approved anticancer drug set is available from the Developmental Therapeutics Program at https://dtp.cancer.gov/organization/dscb/obtaining/available plates.htm. […] The stock solutions were prepared in dimethyl sulfoxide (DMSO, Sigma-Aldrich, St. Louis, MO, cat. D2650) at 800-fold the tested concentration and stored at -70 degrees C prior to their use. All drugs and investigational agents were tested over a range starting from a high concentration at or near the clinical Cmax and decreasing in half-log increments. If the clinical Cmax for an agent had not been determined, the highest concentration tested was 10 microM.
The patient-derived cancer (PDC) cell lines include five colon adenocarcinomas: 186277-243-T-J2-PDC, 616215-338-R-J1-PDC, 439559-082-T-J2-PDC, 463943-066-T-J2-PDC, and 519858-162-T-J1-PDC; three pancreatic carcinomas: 323965-272-R-J2-PDC, 521955-158-R6-J3-PDC, and 521955-158-R2-J5-PDC; two uterine sarcomas: 327498-152-R-J2-PDC and 993429-296-R-J1-PDC; two rhabdomyosarcomas: 755483-174-R-J1-PDC and 772245-204-R-J1-PDC; two soft tissue sarcomas: 126254-015-R-J1-PDC and 494315-158-R-J1-PDC; two malignant fibrous histiocytomas: 317291-083-R-J1-PDC and 596521-263-R-J1-PDC; two breast carcinomas: 171881-019-R-J1-PDC and 885512-296-R-J2-PDC; and one ovarian carcinoma: 6556581-035-R-J-PDC were obtained from the NCI PDMR, (https://pdmr.cancer.gov). The established cell lines HSSY-2 synovial sarcoma (RRID:CVCL 8719), SYO-1 synovial sarcoma (RRID:CVCL_7146), MPNST malignant peripheral neural sheath tumor were obtained from the Sloan Kettering Institute. The following established cell lines were purchased from the American Type Culture Collection (ATCC, Manassas, VA), Sor the received from the NCI repository:, PANC-1 pancreatic carcinoma (CRL-1469, RRID:CVCL_0480), OVCAR-5 ovarian carcinoma (RRID:CVCL_1628), OVCAR-8 ovarian carcinoma (RRID:CVCL_1629), , MCF-7 breast carcinoma (CRL-12584, RRID:CVCL_0031), MDA-MB-231 breast carcinoma (CRL-12532, RRID:CVCL_0062), NCI-H1876 small cell lung carcinoma (CRL-5902, RRID:CVCL_1503), NCI-H510A small cell lung carcinoma (HTB-184, RRID:CVCL_1565), NCI-H1417 (CRL-5869, RRID:CVCL_1469), and NCI-H196 small cell lung carcinoma (CRL-5823, RRID:CVCL_1509). Dr. Peter Houghton (Greehey Children's Cancer Research Institute, University of Texas Health Science Center, San Antonio, TX) provided Rh-18 rhabdomyosarcoma (RRID:CVCL_1659). Pooled donor human umbilical vein endothelial cells (HUVEC, Lonza, cat. CC-2519) and human mesenchymal stem cells (hMSC, Lonza, cat. PT-2501) were purchased from Lonza (Walkersville, MD).
Cell Culture. […]

IC50 (second compound 0.00949 µM): 50 nM
IC50 (second compound 0.03 µM): 15.3 nM
IC50 (second compound 0.0949 µM): < 0.949 nM
IC50 (second compound 0.3 µM): < 0.949 nM
IC50 (second compound 0.949 µM): < 0.949 nM
IC50 (second compound 3 µM): < 0.949 nM
Structure (SMILES): NC(=O)C(=Cn1cnc(-c2cc(C(F)(F)F)cc(C(F)(F)F)c2)n1)c1cncnc1 + CCN1C(C(=O)NC23CCC(C(=O)O)(CC2)CC3)C(c2cccc(Cl)c2F)C2(C(=O)Nc3cc(Cl)ccc32)C12CCCCC2
viability, T/C (second compound 0.00949 µM, first compound 0.000949 µM): 109%
viability, T/C (second compound 0.00949 µM, first compound 0.003 µM): 107%
viability, T/C (second compound 0.00949 µM, first compound 0.00949 µM): 86.7%
viability, T/C (second compound 0.00949 µM, first compound 0.03 µM): 73.6%
viability, T/C (second compound 0.00949 µM, first compound 0.0949 µM): 23.7%
viability, T/C (second compound 0.00949 µM, first compound 0.3 µM): 14.1%
viability, T/C (second compound 0.03 µM, first compound 0.000949 µM): 89.2%
viability, T/C (second compound 0.03 µM, first compound 0.003 µM): 75.2%
viability, T/C (second compound 0.03 µM, first compound 0.00949 µM): 55.6%
viability, T/C (second compound 0.03 µM, first compound 0.03 µM): 44.4%
viability, T/C (second compound 0.03 µM, first compound 0.0949 µM): 17.8%
viability, T/C (second compound 0.03 µM, first compound 0.3 µM): 14.3%
viability, T/C (second compound 0.0949 µM, first compound 0.000949 µM): 45.5%
viability, T/C (second compound 0.0949 µM, first compound 0.003 µM): 48%
viability, T/C (second compound 0.0949 µM, first compound 0.00949 µM): 30.4%
viability, T/C (second compound 0.0949 µM, first compound 0.03 µM): 12.4%
viability, T/C (second compound 0.0949 µM, first compound 0.0949 µM): 9.36%
viability, T/C (second compound 0.0949 µM, first compound 0.3 µM): 12.6%
viability, T/C (second compound 0.3 µM, first compound 0.000949 µM): 25.9%
viability, T/C (second compound 0.3 µM, first compound 0.003 µM): 22.5%
viability, T/C (second compound 0.3 µM, first compound 0.00949 µM): 16%
viability, T/C (second compound 0.3 µM, first compound 0.03 µM): 13.9%
viability, T/C (second compound 0.3 µM, first compound 0.0949 µM): 11.8%
viability, T/C (second compound 0.3 µM, first compound 0.3 µM): 13.4%
viability, T/C (second compound 0.949 µM, first compound 0.000949 µM): 14.8%
viability, T/C (second compound 0.949 µM, first compound 0.003 µM): 11%
viability, T/C (second compound 0.949 µM, first compound 0.00949 µM): 9.57%
viability, T/C (second compound 0.949 µM, first compound 0.03 µM): 10.6%
viability, T/C (second compound 0.949 µM, first compound 0.0949 µM): 14%
viability, T/C (second compound 0.949 µM, first compound 0.3 µM): 14.7%
viability, T/C (second compound 3 µM, first compound 0.000949 µM): 13.1%
viability, T/C (second compound 3 µM, first compound 0.003 µM): 10.4%
viability, T/C (second compound 3 µM, first compound 0.00949 µM): 10.3%
viability, T/C (second compound 3 µM, first compound 0.03 µM): 13.8%
viability, T/C (second compound 3 µM, first compound 0.0949 µM): 16.1%
viability, T/C (second compound 3 µM, first compound 0.3 µM): 20.5%

IC50 (second compound 0.0316 µM): 5.15 nM
IC50 (second compound 0.1 µM): 6.44 nM
IC50 (second compound 0.316 µM): 4.92 nM
IC50 (second compound 1 µM): 5.56 nM
IC50 (second compound 3.16 µM): < 3.16 nM
IC50 (second compound 10 µM): 4.17 nM
Structure (SMILES): CNC(C)C(=O)NC1CN(S(=O)(=O)c2cccc(S(=O)(=O)N3CCC4CCC(C(=O)NC(c5ccccc5)c5ccccc5)N4C(=O)C(NC(=O)C(C)NC)C3)c2)CCC2CCC(C(=O)NC(c3ccccc3)c3ccccc3)N2C1=O (centres undefined) + Cc1c(S(C)(=O)=O)c(-c2cc(F)cc(N3CCN(c4ccc(NS(=O)(=O)c5ccc(NC(CCN6CCC(C(=O)OCCCP(=O)(O)O)CC6)CSc6ccccc6)c(S(=O)(=O)C(F)(F)F)c5)cc4)CC3)c2)c(-c2ccc(Cl)cc2)n1C(C)C
viability, T/C (second compound 0.0316 µM, first compound 0.00316 µM): 73.3%
viability, T/C (second compound 0.0316 µM, first compound 0.01 µM): 17.6%
viability, T/C (second compound 0.0316 µM, first compound 0.0316 µM): 15.6%
viability, T/C (second compound 0.0316 µM, first compound 0.1 µM): 18.6%
viability, T/C (second compound 0.0316 µM, first compound 0.316 µM): 16.3%
viability, T/C (second compound 0.0316 µM, first compound 1 µM): 20.2%
viability, T/C (second compound 0.1 µM, first compound 0.00316 µM): 96.3%
viability, T/C (second compound 0.1 µM, first compound 0.01 µM): 21.4%
viability, T/C (second compound 0.1 µM, first compound 0.0316 µM): 17.3%
viability, T/C (second compound 0.1 µM, first compound 0.1 µM): 17%
viability, T/C (second compound 0.1 µM, first compound 0.316 µM): 17.7%
viability, T/C (second compound 0.1 µM, first compound 1 µM): 16.9%
viability, T/C (second compound 0.316 µM, first compound 0.00316 µM): 65.9%
viability, T/C (second compound 0.316 µM, first compound 0.01 µM): 25.1%
viability, T/C (second compound 0.316 µM, first compound 0.0316 µM): 16.4%
viability, T/C (second compound 0.316 µM, first compound 0.1 µM): 19%
viability, T/C (second compound 0.316 µM, first compound 0.316 µM): 19.2%
viability, T/C (second compound 0.316 µM, first compound 1 µM): 18.8%
viability, T/C (second compound 1 µM, first compound 0.00316 µM): 78.9%
viability, T/C (second compound 1 µM, first compound 0.01 µM): 20%
viability, T/C (second compound 1 µM, first compound 0.0316 µM): 18.6%
viability, T/C (second compound 1 µM, first compound 0.1 µM): 19.8%
viability, T/C (second compound 1 µM, first compound 0.316 µM): 17.4%
viability, T/C (second compound 1 µM, first compound 1 µM): 15.9%
viability, T/C (second compound 3.16 µM, first compound 0.00316 µM): 37%
viability, T/C (second compound 3.16 µM, first compound 0.01 µM): 19.1%
viability, T/C (second compound 3.16 µM, first compound 0.0316 µM): 18.3%
viability, T/C (second compound 3.16 µM, first compound 0.1 µM): 22.8%
viability, T/C (second compound 3.16 µM, first compound 0.316 µM): 20.4%
viability, T/C (second compound 3.16 µM, first compound 1 µM): 20.1%
viability, T/C (second compound 10 µM, first compound 0.00316 µM): 56%
viability, T/C (second compound 10 µM, first compound 0.01 µM): 31.6%
viability, T/C (second compound 10 µM, first compound 0.0316 µM): 23.8%
viability, T/C (second compound 10 µM, first compound 0.1 µM): 21.7%
viability, T/C (second compound 10 µM, first compound 0.316 µM): 21.5%
viability, T/C (second compound 10 µM, first compound 1 µM): 24%

From PubChem BioAssay AID1963445 (Molecular Pharmacology Branch, DTP, NCI, 2024)
